In the supplement of paper PMC10307832:

How the values were obtained:
Assay in all cases: relative viability (nuclei count vs DMSO), 5 days (fraction); higher = more cells survive
COR-L23 = test system: COR-L23
Method in brief: (§1)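 Medians of duplicate plates are given as relative viability. That measure is the nuclei count in treated wells divided by the count in vehicle wells. Counts were taken on 4× images of lung cancer cell lines in 1536-well plates, 5 days after pin-tool dosing the day after seeding with one drug alone or a fixed anchor-drug dose plus five library-drug doses (not always all listed) in √10 steps.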

EPLC-272H = test system: EPLC-272H
Method in brief: as §1

HARA = test system: HARA
Method in brief: as §1

HCC-15 = test system: HCC-15
Method in brief: as §1

HCC-44 = test system: HCC-44
Method in brief: as §1

HOP-62 = test system: HOP-62
Method in brief: as §1

LC-2-ad = test system: LC-2-ad
Method in brief: as §1

LU99A = test system: LU99A
Method in brief: as §1

NCI-H1355 = test system: NCI-H1355
Method in brief: as §1

NCI-H1651 = test system: NCI-H1651
Method in brief: as §1

NCI-H1915 = test system: NCI-H1915
Method in brief: as §1

NCI-H1993 = test system: NCI-H1993
Method in brief: as §1

NCI-H2023 = test system: NCI-H2023
Method in brief: as §1

NCI-H2085 = test system: NCI-H2085
Method in brief: as §1

NCI-H2126 = test system: NCI-H2126
Method in brief: as §1

NCI-H2347 = test system: NCI-H2347
Method in brief: as §1

NCI-H838 = test system: NCI-H838
Method in brief: as §1

PC-14 = test system: PC-14
Method in brief: as §1

SW 1573 = test system: SW 1573
Method in brief: as §1

UMC-11 = test system: UMC-11
Method in brief: as §1

## CC(=O)O[C@@]12CO[C@@H]1C[C@H](O)[C@@]1(C)C(=O)[C@H](O)C3=C(C)[C@@H](OC(=O)[C@H](O)[C@@H](NC(=O)OC(C)(C)C)c4ccccc4)C[C@@](O)([C@@H](OC(=O)c4ccccc4)[C@H]21)C3(C)C [Docetaxel] + CC1(C)CCC(c2ccc(Cl)cc2)=C(CN2CCN(c3ccc(C(=O)NS(=O)(=O)c4ccc(N[C@H](CCN5CCOCC5)CSc5ccccc5)c(S(=O)(=O)C(F)(F)F)c4)cc3)CC2)C1 [Navitoclax] (partner 0.5 µM)
COR-L23; first compound 0.0002 µM
  relative viability: 0.899
COR-L23; first compound 0.000632 µM
  relative viability: 0.939
COR-L23; first compound 0.002 µM
  relative viability: 0.373
COR-L23; first compound 0.006325 µM
  relative viability: 0.0756
COR-L23; first compound 0.02 µM
  relative viability: 0.0656
EPLC-272H; first compound 0.0002 µM
  relative viability: 1.12
EPLC-272H; first compound 0.000632 µM
  relative viability: 0.889
EPLC-272H; first compound 0.002 µM
  relative viability: 0.374
EPLC-272H; first compound 0.006325 µM
  relative viability: 0.126
EPLC-272H; first compound 0.02 µM
  relative viability: 0.0732
HARA; first compound 0.0002 µM
  relative viability: 1.08
HARA; first compound 0.000632 µM
  relative viability: 0.912
HARA; first compound 0.002 µM
  relative viability: 0.156
HARA; first compound 0.006325 µM
  relative viability: 0.107
HARA; first compound 0.02 µM
  relative viability: 0.0621
HCC-15; first compound 0.0002 µM
  relative viability: 0.636
HCC-15; first compound 0.000632 µM
  relative viability: 0.372
HCC-15; first compound 0.002 µM
  relative viability: 0.221
HCC-15; first compound 0.006325 µM
  relative viability: 0.161
HCC-15; first compound 0.02 µM
  relative viability: 0.0988
HCC-44; first compound 0.0002 µM
  relative viability: 0.962
HCC-44; first compound 0.000632 µM
  relative viability: 0.934
HCC-44; first compound 0.002 µM
  relative viability: 0.362
HCC-44; first compound 0.006325 µM
  relative viability: 0.242
HCC-44; first compound 0.02 µM
  relative viability: 0.149
HOP-62; first compound 0.0002 µM
  relative viability: 0.878
HOP-62; first compound 0.000632 µM
  relative viability: 0.552
HOP-62; first compound 0.002 µM
  relative viability: 0.312
HOP-62; first compound 0.02 µM
  relative viability: 0.0795
LC-2-ad; first compound 0.0002 µM
  relative viability: 0.237
LC-2-ad; first compound 0.000632 µM
  relative viability: 0.18
LC-2-ad; first compound 0.002 µM
  relative viability: 0.114
LC-2-ad; first compound 0.006325 µM
  relative viability: 0.0942
LC-2-ad; first compound 0.02 µM
  relative viability: 0.0914
LU99A; first compound 0.0002 µM
  relative viability: 0.865
LU99A; first compound 0.000632 µM
  relative viability: 0.533
LU99A; first compound 0.002 µM
  relative viability: 0.277
LU99A; first compound 0.006325 µM
  relative viability: 0.201
LU99A; first compound 0.02 µM
  relative viability: 0.148
NCI-H1355; first compound 0.0002 µM
  relative viability: 0.901
NCI-H1355; first compound 0.000632 µM
  relative viability: 0.77
NCI-H1355; first compound 0.002 µM
  relative viability: 0.372
NCI-H1355; first compound 0.006325 µM
  relative viability: 0.272
NCI-H1355; first compound 0.02 µM
  relative viability: 0.175
NCI-H1651; first compound 0.0002 µM
  relative viability: 1.18
NCI-H1651; first compound 0.000632 µM
  relative viability: 0.968
NCI-H1651; first compound 0.002 µM
  relative viability: 0.233
NCI-H1651; first compound 0.006325 µM
  relative viability: 0.0921
NCI-H1651; first compound 0.02 µM
  relative viability: 0.0627
NCI-H1915; first compound 0.0002 µM
  relative viability: 0.789
NCI-H1915; first compound 0.000632 µM
  relative viability: 0.774
NCI-H1915; first compound 0.002 µM
  relative viability: 0.524
NCI-H1915; first compound 0.006325 µM
  relative viability: 0.102
NCI-H1915; first compound 0.02 µM
  relative viability: 0.0504
NCI-H1993; first compound 0.0002 µM
  relative viability: 0.945
NCI-H1993; first compound 0.000632 µM
  relative viability: 0.873
NCI-H1993; first compound 0.002 µM
  relative viability: 0.703
NCI-H1993; first compound 0.006325 µM
  relative viability: 0.554
NCI-H1993; first compound 0.02 µM
  relative viability: 0.436
NCI-H2023; first compound 0.0002 µM
  relative viability: 1.01
NCI-H2023; first compound 0.000632 µM
  relative viability: 0.995
NCI-H2023; first compound 0.002 µM
  relative viability: 0.176
NCI-H2023; first compound 0.006325 µM
  relative viability: 0.168
NCI-H2023; first compound 0.02 µM
  relative viability: 0.0908
NCI-H2085; first compound 0.0002 µM
  relative viability: 1.05
NCI-H2085; first compound 0.000632 µM
  relative viability: 1.03
NCI-H2085; first compound 0.002 µM
  relative viability: 0.68
NCI-H2085; first compound 0.006325 µM
  relative viability: 0.476
NCI-H2085; first compound 0.02 µM
  relative viability: 0.232
NCI-H2126; first compound 0.0002 µM
  relative viability: 0.873
NCI-H2126; first compound 0.000632 µM
  relative viability: 0.954
NCI-H2126; first compound 0.002 µM
  relative viability: 0.735
NCI-H2126; first compound 0.006325 µM
  relative viability: 0.334
NCI-H2126; first compound 0.02 µM
  relative viability: 0.227
NCI-H2347; first compound 0.0002 µM
  relative viability: 0.844
NCI-H2347; first compound 0.000632 µM
  relative viability: 0.653
NCI-H2347; first compound 0.002 µM
  relative viability: 0.408
NCI-H2347; first compound 0.006325 µM
  relative viability: 0.359
NCI-H2347; first compound 0.02 µM
  relative viability: 0.258
NCI-H838; first compound 0.0002 µM
  relative viability: 1.15
NCI-H838; first compound 0.000632 µM
  relative viability: 1.22
NCI-H838; first compound 0.002 µM
  relative viability: 0.29
NCI-H838; first compound 0.006325 µM
  relative viability: 0.176
NCI-H838; first compound 0.02 µM
  relative viability: 0.135
PC-14; first compound 0.0002 µM
  relative viability: 0.978
PC-14; first compound 0.000632 µM
  relative viability: 0.961
PC-14; first compound 0.002 µM
  relative viability: 0.201
PC-14; first compound 0.006325 µM
  relative viability: 0.0826
PC-14; first compound 0.02 µM
  relative viability: 0.0464
SW 1573; first compound 0.0002 µM
  relative viability: 1.06
SW 1573; first compound 0.000632 µM
  relative viability: 0.204
SW 1573; first compound 0.002 µM
  relative viability: 0.15
SW 1573; first compound 0.006325 µM
  relative viability: 0.0763
SW 1573; first compound 0.02 µM
  relative viability: 0.0456
UMC-11; first compound 0.0002 µM
  relative viability: 0.314
UMC-11; first compound 0.000632 µM
  relative viability: 0.271
UMC-11; first compound 0.002 µM
  relative viability: 0.155
UMC-11; first compound 0.006325 µM
  relative viability: 0.131
UMC-11; first compound 0.02 µM
  relative viability: 0.105
